Results taken from paper PMC11579541, “In vitro, in vivo, and in silico approaches for evaluating the preclinical DMPK profiles of ammoxetine, a novel chiral serotonin and norepinephrine reuptake inhibitor” (Frontiers in Pharmacology, 2024).

Legend:
[1] = tested on: P-gp (MDR1); test: Bidirectional permeability measurements in MDCK-MDR1 monolayers; assay type: in vitro ADME, canine; details: dog, MDCK-MDR1, read-out: ER [Papp(B→A)⁄Papp(A→B)]
Experimental: (§1) MDCK-MDR1 cells at passage 17 were cultured in DMEM supplemented with 10% FBS, 1% glutamine, 100 U/mL penicillin/streptomycin, 1% NEAA, and 1 mmol/L sodium pyruvate. The cells were incubated overnight at 37°C with 5% CO2 and a relative humidity of 90%. Once the cells reached approximately 80% confluence, they were treated with a 0.25% trypsin/EDTA solution to dissociate the cells. Subsequently, the cells were seeded at a density of 5 × 10^5 cells/cm^2 in Millicell-96 well plates (Millipore, Burlington, USA). Prior to conducting the experiments, the integrity of the cell monolayer was confirmed by measuring transepithelial electrical resistance (TEER) using a Millicell ERS® meter (Millipore, Burlington, USA). A TEER value greater than 400 Ω cm^2 was required to ensure the formation and preservation of tight junctions.
(§2) Cell monolayers were preincubated with HBSS for 15 min at 37°C. To measure the A→B (apical side to basolateral side of monolayer) transporter, 400 μL of ammoxetine solution was added to the A-side (donor chamber), and 1,200 μL of HBSS solution was added to the B-side (receiver chamber). The B→A transporter was evaluated by adding 1,200 μL of ammoxetine solution to the B-side (donor chamber) and 400 μL of HBSS solution to the A-side (receiver chamber). At 0 h, 50 μL of the solution was taken from the donor chamber, and aliquots of 50 μL were taken from the receiver chamber at 15, 30, 45, 60, 90, and 120-min time intervals. The collected aliquots were immediately replaced with equal volumes of fresh blank HBSS. Ammoxetine transport was studied at three concentrations: 0.2, 1, and 5 μg/mL, with each concentration evaluated in triplicate. […] Ammoxetine samples collected from the receiver chambers at different time points were mixed with 150 μL of acetonitrile/methanol (1:1, v/v) solution containing 50 ng/mL L-phencynonate (IS). The mixtures were then vortexed for 1 min and centrifuged for 10 min at 13,800×g. The supernatants were analyzed using an LC-MS-MS method.
(§3) The apparent permeability coefficient ( Papp , cm/s) values for ammoxetine were determined using Equation 1: Papp=dQ/dt/A×C0 (1)
(§4) Here, dQ/dt represents the amount of drug transported to the receiver chamber within a specific time period, A is the surface area of the cell monolayer (=0.33 cm^2), and C0 is the initial concentration of ammoxetine.
(§5) In general, the involvement of a P-gp-mediated efflux mechanism was indicated if the efflux ratio ( ER ) value exceeded 1.5 ([Langthaler et al., 2024]). […]

[2] = tested on: P-gp; test: as above; assay type: in vitro ADME, canine; details: dog, MDCK-MDR1, with verapamil 100 μmol/L, verapamil 100 μmol/L
Experimental: as §1, §2, §3, §4, §5

[3] = tested on: MDCK-MDR1 cells; test: as above; assay type: in vitro ADME, canine; details: from ER and verapamil effect
Experimental: as §1, §2, §3, §4, §5

[4] = Stability of ammoxetine in rat plasma (method validation); assay type: in vitro ADME
Experimental: LC-MS-MS methods were developed and validated to accurately quantify ammoxetine in rat and beagle dog plasma, as well as in rat tissues, urine, feces, and bile. The methods involved direct protein precipitation using methanol, providing a straightforward and rapid sample preparation process with high extraction recovery rates (absolute recoveries >85% in all matrices). […] The precision and accuracy of the plasma methods were evaluated through intra-day and inter-day analyses, yielding satisfactory results. Additionally, stability tests conducted in rat and beagle dog plasma met the analytical requirements for determination. Furthermore, the majority of the analytes met the necessary criteria for matrix effects when quantifying ammoxetine in biological samples. The developed methods are well-suited for determining ammoxetine concentrations in rat and beagle dog biological samples, enabling in vivo studies of this compound. They provide specific and highly sensitive quantification, facilitating investigations into the drug’s behavior in vivo. Detailed results regarding the establishment and validation of these analytical methods can be found in Supplementary Data Sheet 2.

[5] = Excretion study in rats; assay type: in vivo, SD rats; details: 20 mg/kg oral; for Bile Cumulative excretion rate / Bile Excretion rate: bile duct cannulated rats; for Feces Cumulative excretion rate / Feces Excretion rate / Urine Cumulative excretion rate / Urine Excretion rate: rats
Experimental: Five SD rats were pre-adapted in separate metabolic cages with access to water and a solid diet. They were then administered a single oral dose of 20 mg/kg of ammoxetine after a 12-h fasting period and free access to water. Feces and urine samples were collected at specific time intervals: 0–5 h, 5–12 h, 12–24 h, 24–48 h, and 48–72 h post-administration. The dried fecal weights and urine volumes were measured and recorded at each sampling period. The collected feces were ground, thoroughly mixed, and then homogenized in distilled water to create a 10% homogenate, which was used as the fecal sample. In parallel, after a 12-h fasting period with free access to water, five SD rats were anesthetized, and bile duct cannulation was performed to collect bile samples. Once recovered from anesthesia, these rats received a single oral dose of 20 mg/kg of ammoxetine via oral gavage. Bile was collected at the following time points: 0–5 h, 5–12 h, 12–24 h, 24–48 h, and 48–72 h post-dosing, and its volume was measured. All collected samples were stored at −30°C until further processing. For sample processing, 100 μL of feces homogenates, urine, or bile samples were taken and mixed with 100 μL of L-phencynonate (IS, 50 ng/mL) and 300 μL of methanol. After vortexing, the mixture was centrifuged at 13,800×g for 10 min. The resulting supernatants were analyzed using an LC-MS-MS method.

efflux ratio at 120 min, 0.2 μg/mL ([1]; 0.2 μg/mL): 1.67
efflux ratio at 120 min, 1 μg/mL ([1]; 1 μg/mL): 1.74
efflux ratio at 120 min, 5 μg/mL ([1]; 5 μg/mL): 1.9
Papp A→B at 120 min, 0.2 μg/mL ([2]; 0.2 μg/mL): 27.2 ± 6.43 ×10⁻⁶ cm/s
Papp A→B at 120 min, 1 μg/mL ([2]; 1 μg/mL): 28.8 ± 1.89 ×10⁻⁶ cm/s
Papp A→B at 120 min, 5 μg/mL ([2]; 5 μg/mL): 29.9 ± 3.29 ×10⁻⁶ cm/s
P-gp substrate status [3]: likely a substrate of P-gp
Stability in rat plasma, Measured (%) ([4]; 5 ng/mL, -30℃ for 15d): 106.00±2.00%
Stability in rat plasma, Measured (%) ([4]; 5 ng/mL, in auto-sampler for 24h): 114.00±10.00%
Stability in rat plasma, Measured (%) ([4]; 5 ng/mL, room temperature for 4h): 94.00±6.00%
Stability in rat plasma, Measured (%) ([4]; 100 ng/mL, -30℃ for 15d): 105.90±8.30%
Stability in rat plasma, Measured (%) ([4]; 100 ng/mL, in auto-sampler for 24h): 111.20±5.90%
Stability in rat plasma, Measured (%) ([4]; 100 ng/mL, room temperature for 4h): 108.90±7.40%
Stability in rat plasma, Measured (%) ([4]; 800 ng/mL, -30℃ for 15d): 111.74±2.73%
Stability in rat plasma, Measured (%) ([4]; 800 ng/mL, in auto-sampler for 24h): 106.49±0.78%
Stability in rat plasma, Measured (%) ([4]; 800 ng/mL, room temperature for 4h): 114.33±0.73%
Bile Cumulative excretion rate ([5]; 0–5 h): 0.089 ± 0.058%
Bile Excretion rate ([5]; 0–5 h): 0.089 ± 0.058%
Bile Cumulative excretion rate ([5]; 5–12 h): 0.271 ± 0.257%
Bile Excretion rate ([5]; 5–12 h): 0.182 ± 0.212%
Bile Cumulative excretion rate ([5]; 12–24 h): 0.420 ± 0.384%
Bile Excretion rate ([5]; 12–24 h): 0.149 ± 0.146%
Bile Cumulative excretion rate ([5]; 24–48 h): 0.420 ± 0.384%
Bile Excretion rate ([5]; 48–72 h): 0.016 ± 0.016%
Bile Cumulative excretion rate ([5]; 48–72 h (at 72 h)): 0.436 ± 0.400%
Feces Cumulative excretion rate ([5]; 0–5 h): 0.010 ± 0.008%
Feces Excretion rate ([5]; 0–5 h): 0.010 ± 0.008%
Urine Cumulative excretion rate ([5]; 0–5 h): 0.116 ± 0.034%
Urine Excretion rate ([5]; 0–5 h): 0.116 ± 0.034%
Feces Cumulative excretion rate ([5]; 5–12 h): 0.216 ± 0.060%
Feces Excretion rate ([5]; 5–12 h): 0.206 ± 0.056%
Urine Cumulative excretion rate ([5]; 5–12 h): 0.223 ± 0.069%
Urine Excretion rate ([5]; 5–12 h): 0.107 ± 0.048%
Feces Cumulative excretion rate ([5]; 12–24 h): 0.361 ± 0.168%
Feces Excretion rate ([5]; 12–24 h): 0.145 ± 0.126%
Urine Cumulative excretion rate ([5]; 12–24 h): 0.273 ± 0.124%
Urine Excretion rate ([5]; 12–24 h): 0.050 ± 0.057%
Feces Cumulative excretion rate ([5]; 24–48 h): 0.380 ± 0.180%
Feces Excretion rate ([5]; 24–48 h): 0.019 ± 0.016%
Urine Cumulative excretion rate ([5]; 24–48 h): 0.287 ± 0.134%
Urine Excretion rate ([5]; 24–48 h): 0.014 ± 0.010%
Feces Excretion rate ([5]; 48–72 h): 0.002 ± 0.003%
Urine Excretion rate ([5]; 48–72 h): 0.005 ± 0.003%
Feces Cumulative excretion rate ([5]; 48–72 h (at 72 h)): 0.382 ± 0.180%
Urine Cumulative excretion rate ([5]; 48–72 h (at 72 h)): 0.292 ± 0.137%
Structure (SMILES): CNCC[C@H](Oc1cccc2c1OCO2)c1cccs1 [ammoxetine]
